Results on 5 compounds are retold here after US20100093662A1, “NOVEL AMPHIPHILIC CYCLODEXTRIN DERIVATIVES” (CENTRE NATIONAL DE LA RECHERCHE SCIENTIFIQUE-CNRS-, priority 2006, published 2010).

One data set relates to plasmid pTG11236. The data set can be described thus: Electrophoretic analysis of nanoparticles of DNA (agarose gel, ethidium bromide). It is filed as binding. To be noted: for accessibility of the DNA at the intercalation by ethidium bromide: N/P ratio=5, plasmid pTG11236. As for the experimental part:
The plasmid pTG11236 (pCMV-SV40-luciferase-SV40 pA), used in the preparation of DNA complexes and for transfection tests is a plasmid with 5739 pairs of bases. The quantities of compounds used are calculated to obtain a DNA concentration of 0.1 mg·mL^−1 (303 μM in phosphate equivalent) and the desired Nitrogen/Phosphate (N/P) ratios. Tests for values of N/P=5, 10, 30 and 50 were carried out both for compound no. 8 and for compound no. 16. As a reference transfection formulation (positive control), we used polyplexes formulated with the same plasmid and the polycationic polymer polyethyleneimine (branched PEI, 25 kDa), and naked DNA as a negative control.
For the preparation of the complexes, the DNA is diluted in HEPES (20 mM, pH 7.4) until a final concentration of 303 μM in phosphate equivalent, then the quantity of compound no. 8 or no. 16 necessary, obtained from a stock solution of 20 mg·mL^−1 in DMSO-water 1:2 (v/v) is added in order to obtain the desired N/P ratio. For the PEI, a 0.1M stock solution in water is used. The mixtures are vortexed for 10 sec and used in the characterisation and for the transfection tests, as described below.
10 μl of each formulation of complexes prepared as mentioned above are diluted once in the loaded buffer (glycerol+bromophenol blue+Tris-acetate-EDTA or TAE). 1 μl of this solution are deposited on a gel with 8% agarose. The rest of the sample is diluted once with a decomplexing solution with 8% sodium dodecyl sulfate (SDS) in TAE, then 10 μl are also deposited on a gel. The electrophoresis is carried out for […] at 50V. The gel is then developed with ethidium bromide (Sigma) in TAE ([…] of a solution of ethidium bromide with a concentration of 10 mg·mL^−1 in 200 mL of TAE). The DNA is also visualised and photographed with an UV transilluminator. FIGS. 2 and 3 are photos of electrophoretic analyses, carried out on agarose gel in the presence of ethidium bromide, of DNA complexes/nanoparticles obtained with compound no. 8 according to an N/P ratio of 5, 10, 30 and 50 respectively.

For data set [1], the system named is BNL-CL2 cells. The data set can be described thus: Cell viability after transfection (BCA protein assay). It is filed as cell-based, Murine. The conditions noted are these: for cell viability compared with PEI/DNA polyplexes at the same N/P ratios: N/P ratios>10; for cell viability after transfection: complexes with pTG11236, N/P 5 to 50, 0.5 μg plasmid/well. The protocol:
(§1) Murine embryo cells BNL-CL2 are grown in 96-well plates until a density of 2×10^4 cells/well in a DMEM culture medium (Dulbelcco's Modified Eagle Medium, Gibco-BRL) containing 10% foetal calf serum (SVF; Sigma) at 37° C. in a humid atmosphere with a proportion of 5% CO2/95% air.
(§2) The complexes between compound no. 8, no. 16 or polyethyleneimine (PEI), and plasmid pTG11236 are diluted in 100 μl of DMEM so as to obtain 0.5 μg of DNA in the well.
(§3) The culture medium is removed and replaced by 100 μl of solution of nanoparticle complex/DNA in DMEM. After 4 hrs and 24 hrs, 50 and 100 μL of DMEM containing 30% and 10% of FCS, respectively, are added. After 48 hrs, the transfection is stopped, the culture medium is removed and the cells are washed with PBS (2×100 μL), then lysed with 50 μL of lysis buffer (Promega, Charbonnières, France). The lysates are frozen at −32° C. until the luciferase and protein assay.
The protein assay is based on the BCA test (Pierce). The protein assay is carried out on 15 μl of cell lysate to which are added 300 μl of Pierce reagent (BCA Protein Assay Reagent). It consists of a colorimetric assay which is carried out with UV/visible MRX spectrophotometry (DYNEX Technologies). For each assay, a standard series is carried out with BSA (Bovine Serum Albumin, BIO-RAD), of 0 to 30 μg per well. The reading is taken at 570 nm, after 30 […] at ambient temperature. With this standard BSA series, the OD may be expressed in mg of protein/well.
The ratio of the quantities of proteins corresponding to the transfected and non transfected (100% cell viability) cells is used to assess the cell viability of the complexes (expressed in %).
All of the formulations are tested at least 3 times. The results obtained were processed using STATGRAPHICS Plus5.1 software (trade mark). Anova analysis of variance is carried out on the values of the efficacies of transfection (LoglO(fg luciferase/mg protein)) and on the cell viability. It is possible to analyse the impact (on the transfection or cell viability) of the variation of one or several factors by applying a mono- or multifactorial analysis of variance, respectively. The method used to compare the means is the HSD (honestly significant difference) intervals by Tukey.

A short description of data set [2]: Size and polydispersion of white homogenous nanospheres (quasi-elastic diffusion of light), physical stability over time. It is filed as physicochemical. The protocol: The method used to prepare white homogenous nanospheres consists in introducing an organic phase of acetone (or tetrahydrofurane) and an amphiphilic cyclodextrin derivative from the invention (1 mg·mL^−1) in an aqueous phase of equivalent volume or a double volume (distilled water), under magnetic stirring (500 r.p.m.) at 25° C. After nanoprecipitation, the organic solvent is eliminated under reduced pressure at +35° C. The aqueous suspension presenting an opalescent to milky appearance (according to the products used) is then concentrated until the final volume desired is obtained, then filtered on a 0.8 μm filter (Millex AA, Millipore, France).
The colloid suspensions are then characterised as regards the granulometry (mean size and polydisperion) and, when they incorporate loaded amphiphilic cyclodextrins, by their zeta potential. The characterisation is carried out using the following methods:
The quasi-elastic diffusion of light is used. A Zetasizer 3000 apparatus equipped with a K7132 correlator (Malvern Instruments, RU) was used. The conditions for measurement are as follows: angle of detection 90°, temperature 25±0.1° C., apparent viscosity 0.89 mPa·s. Before measuring the size, samples are diluted in distilled water if necessary. The hydrodynamic diameter (mean Z) and polydispersion index (PI) of the nanoparticles in suspension are calculated in intensity by the cumulant method by carrying out 3 measurements on the same sample. The value of the hydrodynamic diameter is calculated using the measurement of the translational coefficient of diffusion of particles with Brownian movement. An NanoZS apparatus (Malvern Instruments) was also used to measure the size of the nanocapsules. In the same way, the samples are diluted before measurement, if necessary in water added to Montanox 80 (trade mark).
The studies on the physical stability of particles were carried out over periods ranging from 1 month to 8 months. The corresponding data for a series of amphiphilic cyclodextrins in the invention are indicated in Table 1 providing the granulometric characteristics (mean size and polydispersion index or mean PI), with evolution over time, of different homogenous nanospheres derived from the compounds indicated in the left column, the reference number for said compounds corresponding to those of the compounds described in the above examples.

Data set [3] concerns BNL-CL2 cells. Kind of data set: In vitro transfection of nanoparticles of DNA, luciferase assay. Type of data set: cell-based, Murine. To be noted: 0.5 μg of DNA per well (FIG. 6: N/P=10). As for the experimental part:
as §1, §2, §3
The luciferase assay is used to assess the efficacy of transfection. This assay is based on a chimioluminescence reaction whose principle is based on oxydation by luciferase of its substrate (luciferine) with concomitant production of a photon. The activity of the luciferase is measured with a Biolumat LB96P WMP100 apparatus (BERTHOLD) for 10 sec after the injection of 50 μl of reagent containing luciferine (Prmèga assay kit) in each well containing 10 μl of cell extract. […]

In the case of “heptakis[6-(2-aminoethylthio)-6-desoxy-2,3-di-O-hexanoyl]cyclomaltoheptaose heptachlorhydrate [compound no. 8]”, the “accessibility of the DNA at the intercalation by ethidium bromide” value in the data set with plasmid pTG11236 is given as “partially accessible”. Besides, in the data set with plasmid pTG11236 (N/P ratio≧10, plasmid pTG11236), the “complexation of the DNA (absence of DNA bands)” value is on record as “total complexation”. Moreover, in the data set on BNL-CL2 cells [1], the “cell viability compared with PEI/DNA polyplexes at the same N/P ratios” value is recorded as “significantly higher” and the “cell viability after transfection” value was “excellent”.
Turning to `CCCCCC(=O)OC1C2OC(CSCCNC(=S)NC)C(OC3OC(CSCCNC(=S)NC)C(OC4OC(CSCCNC(=S)NC)C(OC5OC(CSCCNC(=S)NC)C(OC6OC(CSCCNC(=S)NC)C(OC7OC(CSCCNC(=S)NC)C(OC8OC(CSCCNC(=S)NC)C(O2)C(OC(=O)CCCCC)C8OC(=O)CCCCC)C(OC(=O)CCCCC)C7OC(=O)CCCCC)C(OC(=O)CCCCC)C6OC(=O)CCCCC)C(OC(=O)CCCCC)C5OC(=O)CCCCC)C(OC(=O)CCCCC)C4OC(=O)CCCCC)C(OC(=O)CCCCC)C3OC(=O)CCCCC)C1OC(=O)CCCCC` (centres unmarked) [compound no. 13, heptakis[6-desoxy-2,3-di-0-hexanoyl-6-(2-(N′-methylthioureido)ethylthio)]cyclomaltoheptaose], in data set [2] (initial), the “Mean size ± standard deviation (n = 3)” value is 115 ± 31 nm and the “PI (polydispersion index)” value is listed as 0.16.
Regarding `CCCCCC(=O)O[C@@H]1[C@@H](OC(=O)CCCCC)[C@H]2O[C@H]3[C@H](OC(=O)CCCCC)[C@@H](OC(=O)CCCCC)[C@@H](O[C@H]4[C@H](OC(=O)CCCCC)[C@@H](OC(=O)CCCCC)[C@@H](O[C@H]5[C@H](OC(=O)CCCCC)[C@@H](OC(=O)CCCCC)[C@@H](O[C@H]6[C@H](OC(=O)CCCCC)[C@@H](OC(=O)CCCCC)[C@@H](O[C@H]7[C@H](OC(=O)CCCCC)[C@@H](OC(=O)CCCCC)[C@@H](O[C@H]8[C@H](OC(=O)CCCCC)[C@@H](OC(=O)CCCCC)[C@@H](O[C@@H]1[C@@H](CI)O2)O[C@@H]8CI)O[C@@H]7CI)O[C@@H]6CI)O[C@@H]5CI)O[C@@H]4CI)O[C@@H]3CI` [compound no. 1, heptakis(6-desoxy-2,3-di-0-hexanoyl-6-iodo) cyclomaltoheptaose], in data set [2] (8 months), the “Mean size ± standard deviation (n = 3)” value came to 236 ± 13 nm and the “PI (polydispersion index)” value is given as 0.03. Besides, in data set [2] (initial), the “Mean size ± standard deviation (n = 3)” value is on record as 251 ± 62 nm and the “PI (polydispersion index)” value was found to be 0.08.
Take `CCCCCC(=O)OC1C2OC(CO)C(OC3OC(CO)C(OC4OC(CO)C(OC5OC(CO)C(OC6OC(CSCCNC(=S)NCCSCC7OC8OC9C(CO)OC(OC%10C(CO)OC(OC%11C(CO)OC(OC%12C(CO)OC(OC%13C(CO)OC(OC%14C(CO)OC(OC7C(O)C8O)C(O)C%14O)C(O)C%13O)C(O)C%12O)C(O)C%11O)C(O)C%10O)C(O)C9O)C(OC7OC(CO)C(OC8OC(CO)C(O2)C(OC(=O)CCCCC)C8OC(=O)CCCCC)C(OC(=O)CCCCC)C7OC(=O)CCCCC)C(OC(=O)CCCCC)C6OC(=O)CCCCC)C(OC(=O)CCCCC)C5OC(=O)CCCCC)C(OC(=O)CCCCC)C4OC(=O)CCCCC)C(OC(=O)CCCCC)C3OC(=O)CCCCC)C1OC(=O)CCCCC` (centres unmarked) [compound no. 26]: in data set [2] (initial), the “Mean size ± standard deviation (n = 3)” value is reported as 100 ± 20 nm and the “PI (polydispersion index)” value is listed as 0.06.
With `CCCCCC(=O)O[C@@H]1[C@@H](OC(=O)CCCCC)[C@H]2O[C@H]3[C@H](OC(=O)CCCCC)[C@@H](OC(=O)CCCCC)[C@@H](O[C@H]4[C@H](OC(=O)CCCCC)[C@@H](OC(=O)CCCCC)[C@@H](O[C@H]5[C@H](OC(=O)CCCCC)[C@@H](OC(=O)CCCCC)[C@@H](O[C@H]6[C@H](OC(=O)CCCCC)[C@@H](OC(=O)CCCCC)[C@@H](O[C@H]7[C@H](OC(=O)CCCCC)[C@@H](OC(=O)CCCCC)[C@@H](O[C@H]8[C@H](OC(=O)CCCCC)[C@@H](OC(=O)CCCCC)[C@@H](O[C@@H]1[C@@H](CSCCNC(=S)NCCN)O2)O[C@@H]8CSCCNC(=S)NCCN)O[C@@H]7CSCCNC(=S)NCCN)O[C@@H]6CSCCNC(=S)NCCN)O[C@@H]5CSCCNC(=S)NCCN)O[C@@H]4CSCCNC(=S)NCCN)O[C@@H]3CSCCNC(=S)NCCN.Cl.Cl.Cl.Cl.Cl.Cl.Cl` [compound no. 16, heptakis[6-desoxy-6-(2-(N′-(2-aminoethyl)thioureido)ethylthio)-2,3-di-O-hexanoyl]cyclomaltoheptaose heptachlorhydrate], in the data set with BNL-CL2 cells [3], the “levels of transfection compared with N/P 10 polyplexes formulated with PEI” value is on record as “equal” and the “levels of transfection, times higher than those with naked DNA” value is given as “about 10,000 times”. Further, the “accessibility of the DNA at the intercalation by ethidium bromide” value with plasmid pTG11236 is “no longer accessible”. Also, in the data set on BNL-CL2 cells [1], the “cell viability compared with PEI/DNA polyplexes at the same N/P ratios” value is “significantly higher” and the “cell viability after transfection” value was “excellent”.
